The record followed here is ChEMBL document CHEMBL3272096, “Semisynthetic cephalosporins. Synthesis and structure-activity relationships of 7-sulfonylacetamido-3-cephem-4-carboxylic acids” (1976).

For one test, the system named is Klebsiella aerogenes. Nature of the test: Antibacterial activity against Enterobacter aerogenes ATCC 13048 by two-fold agar dilution method. The format is functional. A general note: Agar dilution tests growth on a series of plates holding different concentrations.
A further test deals with Klebsiella pneumoniae. Nature of the test: Antibacterial activity against Klebsiella pneumoniae 4200 by two-fold agar dilution method. Format: functional.
Test [1] has as its system Escherichia coli. Nature of the test: Antibacterial activity against Escherichia coli 12140 infected in sc dosed mouse assessed as host protection administered at 1 and 5 hrs post-infection. As to conditions: Escherichia coli, 12140, sc; read-out: PD50. Format: functional.
The subject of test [2] is Escherichia coli. The test is described as follows: Antibacterial activity against Escherichia coli 12140 by two-fold agar dilution method. Format: functional.
For a further test, the system named is Enterococcus faecalis. The test is described as follows: Antibacterial activity against Streptococcus faecalis by two-fold agar dilution method. The format is functional.
A further test relates to Pseudomonas aeruginosa. Nature of the test: Antibacterial activity against Pseudomonas aeruginosa by two-fold agar dilution method. The format is functional, organism-based.
Another test concerns Salmonella paratyphi. Nature of the test: Antibacterial activity against Salmonella paratyphi ATCC 12176 by two-fold agar dilution method. As to conditions: Salmonella enterica. Format: functional, Salmonella enterica subsp. enterica serovar Paratyphi A.
In test [3] the test system is Staphylococcus aureus. The test is described as follows: Antibacterial activity against penicillin G-resistant Staphylococcus aureus HH 127 by two-fold agar dilution method. The format is functional.
The test system of another test is Shigella flexneri. The test is described as follows: Antibacterial activity against Shigella paradysenteriae HH 117 by two-fold agar dilution method. The format is functional.
Test [4] deals with Staphylococcus aureus. The test is described as follows: Antibacterial activity against Staphylococcus aureus 23390 by two-fold agar dilution method. Format: functional, organism-based.

≈ marks a conversion by molar mass, not a printed value. Calls of active or inactive are those of the source. The rule behind the calls is not given here.

The term MIC denotes the lowest concentration found to suppress growth. A lower MIC goes with greater potency. `Cn1nnnc1SCC1=C(C(=O)[O-])N2C(=O)[C@@H](NC(=O)CS(=O)(=O)C(F)(F)F)[C@H]2SC1.[Na+]`: the minimal inhibitory concentration (MIC) is 3.1 µg/mL with Klebsiella aerogenes; 3.1 µg/mL against Klebsiella pneumoniae; 1.6 µg/mL with Escherichia coli [2]; over 13 µg/mL in the test with Enterococcus faecalis; 1.6 µg/mL against Salmonella paratyphi; 1.6 µg/mL in the test with Staphylococcus aureus [3]. The MIC in the test on Shigella flexneri came out at 0.8 µg/mL. For the same molecule, the ED50 in the test with Escherichia coli [1] came out at 17 mg/kg. In the test on Pseudomonas aeruginosa, the outcome was inactive. Further, the result in the test with Staphylococcus aureus [4] was Active.
On to `Cc1nnc(SCC2=C(C(=O)[O-])N3C(=O)[C@@H](NC(=O)CS(C)(=O)=O)[C@H]3SC2)[nH]1.[Na+]`, for which the MIC is 200 µg/mL against Klebsiella aerogenes; 3.1 µg/mL in the test on Klebsiella pneumoniae; 6.2 µg/mL against Escherichia coli [2]; over 13 µg/mL against Enterococcus faecalis; 1.6 µg/mL against Salmonella paratyphi; 1.6 µg/mL in the test on Staphylococcus aureus [3]. Besides, in the test with Shigella flexneri, the MIC was 13 µg/mL. Also, in the test with Escherichia coli [1], the ED50 was determined as 10 mg/kg. The result in the test with Pseudomonas aeruginosa was inactive. In addition, in the test with Staphylococcus aureus [4], the result was Active.
Regarding `CCS(=O)(=O)CC(=O)N[C@@H]1C(=O)N2C(C(=O)[O-])=C(COC(C)=O)CS[C@H]12.[Na+]`, the MIC with Klebsiella aerogenes is over 200 µg/mL; against Klebsiella pneumoniae, 6.2 µg/mL; with Escherichia coli [2], 25 µg/mL; against Enterococcus faecalis, over 13 µg/mL; against Salmonella paratyphi, 3.1 µg/mL; against Staphylococcus aureus [3], 0.8 µg/mL. Also, the MIC against Shigella flexneri worked out at 25 µg/mL. Further, the ED50 in the test with Escherichia coli [1] worked out at 70 mg/kg. For the same molecule, the result in the test on Pseudomonas aeruginosa was inactive. Besides, the outcome in the test on Staphylococcus aureus [4] was Active.
For `CCCS(=O)(=O)CC(=O)N[C@@H]1C(=O)N2C(C(=O)[O-])=C(CSc3nnnn3C)CS[C@H]12.[Na+]`, the MIC against Klebsiella aerogenes is 6.2 µg/mL; against Klebsiella pneumoniae, 0.8 µg/mL; against Escherichia coli [2], 1.6 µg/mL; in the test with Enterococcus faecalis, over 13 µg/mL; against Salmonella paratyphi, 0.4 µg/mL; with Staphylococcus aureus [3], 0.4 µg/mL. In the test with Shigella flexneri, this molecule displayed a minimum inhibitory concentration (MIC) of 1.6 µg/mL. Moreover, the ED50 in the test on Escherichia coli [1] is 10 mg/kg. Further, the outcome in the test on Pseudomonas aeruginosa was inactive. In addition, in the test on Staphylococcus aureus [4], the outcome was Active.
As for `CCCS(=O)(=O)CC(=O)N[C@@H]1C(=O)N2C(C(=O)[O-])=C(CSc3nnc(C)s3)CS[C@H]12.[Na+]`, the MIC is 50 µg/mL with Klebsiella aerogenes; 3.1 µg/mL in the test with Klebsiella pneumoniae; 6.2 µg/mL against Escherichia coli [2]; over 13 µg/mL in the test with Enterococcus faecalis; 1.6 µg/mL against Salmonella paratyphi; 0.4 µg/mL in the test with Staphylococcus aureus [3]. Also, the MIC against Shigella flexneri was 6.2 µg/mL. In addition, the ED50 in the test with Escherichia coli [1] amounted to 25 mg/kg. Besides, in the test on Pseudomonas aeruginosa, the outcome was inactive. Besides, in the test on Staphylococcus aureus [4], the result was Active.
On to `CCCCS(=O)(=O)CC(=O)N[C@@H]1C(=O)N2C(C(=O)O)=C(COC(C)=O)CS[C@H]12`, for which the MIC against Klebsiella aerogenes is 50 µg/mL (≈ 115 µM); with Klebsiella pneumoniae, 13 µg/mL (≈ 29.9 µM); against Escherichia coli [2], 13 µg/mL (≈ 29.9 µM); in the test with Enterococcus faecalis, over 13 µg/mL; against Salmonella paratyphi, 3.1 µg/mL (≈ 7.13 µM); against Staphylococcus aureus [3], 0.2 µg/mL (≈ 0.46 µM). Further, 6.2 µg/mL (≈ 14.3 µM) was the least that counted as inhibitory in the test on Shigella flexneri (MIC). For the same molecule, in the test with Escherichia coli [1], the ED50 is 180 mg/kg. The result in the test on Pseudomonas aeruginosa was inactive. For the same molecule, the result with Staphylococcus aureus [4] was Active.
For the molecule `CC(=O)OCC1=C(C(=O)O)N2C(=O)[C@@H](NC(=O)CS(=O)(=O)C(F)(F)F)[C@H]2SC1`, the MIC in the test with Klebsiella aerogenes was 25 µg/mL (≈ 56 µM); with Klebsiella pneumoniae, 6.2 µg/mL (≈ 13.9 µM); against Escherichia coli [2] it was 6.2 µg/mL (≈ 13.9 µM); in the test with Enterococcus faecalis, over 13 µg/mL; against Salmonella paratyphi, 6.2 µg/mL (≈ 13.9 µM); in the test on Staphylococcus aureus [3], 6.2 µg/mL (≈ 13.9 µM). The molecule also came in with an MIC against Shigella flexneri of 13 µg/mL (≈ 29.1 µM). Also, in the test with Escherichia coli [1], the ED50 is over 50 mg/kg. In addition, the result with Pseudomonas aeruginosa was inactive. Moreover, the outcome in the test with Staphylococcus aureus [4] was Active.
